Data on 4 molecules can be found in patent publication US8029984B2, “Materials and methods for colorectal cancer screening, diagnosis and therapy” (Licentia, Ltd., priority 2003, dated 2011).

Holding throughout (type): cell-based, human
Data set [1] relates to SW480R cells. The data set can be described thus: Treatment of SW480R cells with inhibitor of DNA methyltransferases. From the text:
(§1) DNA methylation is frequently abnormal in colorectal cancer, and it was reported recently that Prox-1 expression is suppressed in human hematological cell lines due to hypermethylation of CpG islands in intron 1 of Prox-1 (Nagai, H. et al., Genes Chromosomes Cancer 38, 13-21 (2003)).

The next data set relates to SW480A cells. The data set can be described thus: Treatment of SW480A cells with inhibitor of DNA methyltransferases.
Excerpt: as §1

Data set [2] concerns SW480R cells. Kind of data set: BrdU incorporation in siRNA transfected SW480R cells. As to the method: Transfection of siRNAs was carried out using lipofectamine 2000 (Invitrogen) according to manufacturer's instructions using 0.5% (v/v) lipofectamine 2000 reagent for SW480R and 0.4% (v/v) lipofectamine 2000 for adherent SW480 cells and either 2 nM or 100 nM (f.c.) of siRNA. Transfections were carried out in antibiotic-free media for 4-6 hours before changing cells back to normal culture media. For long-term experiments siRNA transfections were repeated after 48-72 h from previous transfection (at protein level the silencing effect was seen to remain efficient for at least 96 h). Normally approximately 90-95% transfection efficiency was achieved. Opti-MEM (Invitrogen) medium was used in preparation of transfection mixtures.
Experiments were conducted to investigate whether Prox-1 plays role in the generation and maintenance of the highly transformed phenotype. Prox-1 mRNA and protein in the SW480R cells was suppressed using Prox-1 targeting siRNA. […] Eventually the Prox-1 siRNA cells started to spread on the plate and a number of increased actin stress fibers could be visualized by phalloidine staining.

The test system of data set [3] is SW480R cells. Kind of data set: Soft agar assay (anchorage-independent growth). To be noted: transfected repeatedly over 8 days, two weeks of growth. As for the experimental part: FIG. 3 depicts the efficacy of Prox-1 suppression for inhibiting SW480R cell growth in soft agar. SW480R cells were transfected with GFP siPRNA, Prox-1 siRNA A16 or Prox-1 siRNA A25 or left untreated, and seeded in soft agar in triplicate. The number of colonies was scored after two weeks of growth.
For soft agar assay, 2×10^3 and 2×10^4 cells were seeded in triplicate in 1 ml of 0.33% (w/v) agar (Difco) containing D-MEM, 10% fetal bovine serum, 1 mM glutamine and antibiotics in 6-well plates containing 1 ml of 0.5% bottom agar layer. Cells were fed twice a week, and number of colonies per plate was scored after two weeks in culture.
Since anchorage-independent growth is one of the hallmarks of malignant transformation, experiments were conducted to assess the effects of Prox-1 suppression on the growth of SW480R cells in soft agar. SW480R cells were transfected with GFP siPRNA, Prox-1 siRNA A16 or Prox-1 siRNA A25 repeatedly over an 8-day period, or left untreated, and seeded in soft agar in triplicate. The number of colonies was scored after two weeks of growth.

Take `Nc1ncn([C@H]2C[C@H](O)[C@@H](CO)O2)c(=O)n1` [5-aza-2′-deoxycytidine]: the Prox-1 expression entry with SW480R cells [1] was “almost completely suppressed”. For the same molecule, in the data set with SW480A cells, the “Prox-1 mRNA” value was “did not result in the increase” and the “expression of TIMP3” value is “increase”.
Regarding “GFP siRNA: control siRNA, sense GACGUAAACGGCCACAAGUUU (SEQ ID NO: 8), antisense ACUUGUGGCCGUUUACGUCUU (SEQ ID NO: 9) (listed as RNA, chemistry not given here; listed as Homo sapiens)”, in the data set on SW480R cells [2], the BrdU positive cells amounted to 34±4%.
“Prox-1 siRNA A16: siRNA duplex, sense 5′-CUGCAAGCUGGAUAGUGAAGU-3′ (SEQ ID NO: 4), antisense 5′-UUCACUAUCCAGCUUGCAGAU-3′ (SEQ ID NO: 5) (RNA, backbone not given here; listed as Homo sapiens)”: in the data set on SW480R cells [3], the “number of colonies formed in soft agar” value was “significantly decreased”. Besides, the BrdU positive cells with SW480R cells [2] worked out at 22±0.5%.
Regarding “Prox-1 siRNA A25: siRNA duplex, sense 5′-CUAUGAGCCAGUUUGAUAUUU-3′ (SEQ ID NO: 6), antisense 5′-AUAUCAAACUGGCUCAUAGUU-3′ (SEQ ID NO: 7) (RNA, backbone not given here; listed as Homo sapiens)”, in the data set on SW480R cells [3], the “number of colonies formed in soft agar” value was “significantly decreased”. Moreover, the BrdU positive cells in the data set with SW480R cells [2] is on record as 18±1%.
